Our source for the Ki values is patent publication US20120095055A1, “HEXAHYDROCYCLOPENTYL[f]INDAZOLE 5-HYDROXYMETHYL ETHANOLS AND DERIVATIVES THEREOF AS SELECTIVE GLUCOCORTICOID RECEPTOR MODULATORS” (Merck Sharp & Dohme, Corp., priority 2009, published 2012).

The structures appear in SMILES notation.

In this experiment the target is T1, glucocorticoid receptor (GR) (Homo sapiens, UniProt P04150).
T1 construct: endogenous in cells; host or cells: HeLa (ATCC) cell lysate supernatant
T1 sequence (P04150 1-777): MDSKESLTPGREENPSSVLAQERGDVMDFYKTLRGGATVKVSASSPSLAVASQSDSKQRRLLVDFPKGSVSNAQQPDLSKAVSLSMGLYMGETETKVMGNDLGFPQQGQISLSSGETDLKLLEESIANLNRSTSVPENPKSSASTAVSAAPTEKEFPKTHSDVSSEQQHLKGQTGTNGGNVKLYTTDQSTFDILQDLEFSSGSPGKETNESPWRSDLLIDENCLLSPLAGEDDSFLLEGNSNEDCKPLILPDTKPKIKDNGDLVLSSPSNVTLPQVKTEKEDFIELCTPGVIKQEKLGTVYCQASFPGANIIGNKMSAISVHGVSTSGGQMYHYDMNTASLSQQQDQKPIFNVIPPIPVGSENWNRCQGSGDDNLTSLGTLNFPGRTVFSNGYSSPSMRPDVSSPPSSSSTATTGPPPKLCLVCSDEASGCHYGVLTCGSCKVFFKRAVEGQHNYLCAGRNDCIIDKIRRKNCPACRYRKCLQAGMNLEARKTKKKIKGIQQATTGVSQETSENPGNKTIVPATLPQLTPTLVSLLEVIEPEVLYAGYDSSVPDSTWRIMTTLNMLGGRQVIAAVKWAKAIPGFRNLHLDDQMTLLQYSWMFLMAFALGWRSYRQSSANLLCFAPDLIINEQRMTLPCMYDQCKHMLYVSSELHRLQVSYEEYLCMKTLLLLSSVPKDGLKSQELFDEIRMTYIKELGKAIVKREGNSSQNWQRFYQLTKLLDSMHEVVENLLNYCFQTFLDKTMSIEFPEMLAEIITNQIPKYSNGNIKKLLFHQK
As to the kind of experiment: GR Ligand Binding Assay (3H-dexamethasone displacement, HeLa cell lysate). To be noted: 3H-DEX trace, DEX as reference, read-out: GR BIND Ki. The protocol: Binding Buffer: TEGM (10 mM Tris-HCl, 1 mM EDTA, 10% glycerol, 1 mM beta-mecaptoethanol, 10 mM Sodium Molybdate, pH 7.2)
Dexmethasone-methyl-^3H, (DEX*); (Amersham cat# TRK645) Dexamethasone(DEX) (Sigma, cat# D1756):
Cells (Hall R. E., et al., European Journal of Cancer, 30A: 484-490 (1994)) HeLa (ATCC) cultured in RPMI 1640 (Gibco 11835-055) containing 20 mM Hepes, 4 mM L-glu, 10 ug/ml of human insulin (Sigma, I-0259), 10% FBS and 20 ug/ml of Gentamicin (Gibco#15710-072) are rinsed twice in PBS. Phenol red-free Trypsin-EDTA is diluted in the same PBS 1:10. The cell layers are rinsed with 1× Trypsin, extra Trypsin is poured out, and the cell layers are incubated at 37° C. for ˜2 min. The flask is tapped and checked for signs of cell detachment. Once the cells begin to slide off the flask, the complete media is added. The cells are counted at this point, then diluted to the appropriate concentration and split into flasks or dishes for further culturing (Usually 1:3 to 1:6 dilution).
When the cells are 70 to 85% confluent, they are detached as described above, and collected by centrifuging at 1000 g for 10 minutes at 4° C. The cell pellet is washed twice with TEGM (10 mM Tris-HCl, 1 mM EDTA, 10% glycerol, 1 mM beta-mercaptoethanol, 10 mM Sodium Molybdate, pH 7.2). After the final wash, the cells are resuspended in TEGM at a concentration of 10^7 cells/mL. The cell suspension is snap frozen in liquid nitrogen or ethanol/dry ice bath and transferred to −80° C. freezer on dry ice. Before setting up the binding assay, the frozen samples are left on ice-water to just thaw (˜1 hr). Then the samples are centrifuged at 12,500 g to 20,000 g for 30 min at 4° C. The supernatant is used to set-up assay right away. If using 50 μL of supernatant, the test compound can be prepared in 50 μL of the TEGM buffer.
1×TEGM buffer is prepared, and the isotope-containing assay mixture is prepared in the following order: EtOH (2% final concentration in reaction), ^3H-DEX (Amersham Biosciences) and 1×TEGM. [e.g. For 100 samples, 200 μL (100×2) of EtOH+4.25 μL of 1:10 ^3H—Dex stock+2300 μL (100×23) 1×TEGM]. The compound is serially diluted, e.g., if starting final conc. is 1 μM, and the compound is in 25 μL of solution, for duplicate samples, 75 μL of 4×1 μM solution is made and 3 μL of 100 μM is added to 72 μL of buffer, and 1:5 serial dilution.
25 μL, of 3H-DEX (6 nM) trace and 25 μL compound solution are first mixed together, followed by addition of 50 μL receptor solution. The reaction is gently mixed, spun briefly at about 200 rpm and incubated at 4° C. overnight. 100 μL of 50% HAP slurry is prepared and added to the incubated reaction which is then vortexed and incubated on ice for 5 to 10 minutes. The reaction mixture is vortexed twice more to resuspend HAP while incubating reaction. The samples in 96-well format are then washed in wash buffer using The FilterMate™ Universal Harvester plate washer (Packard). The washing process transfers HAP pellet containing ligand-bound expressed receptor to Unifilter-96 GF/B filter plate (Packard). The HAP pellet on the filter plate is incubated with 50 μL of MICROSCINT (Packard) scintillint for 30 minutes before being counted on the TopCount microscintillation counter (Packard). IC50s are calculated using DEX as a reference.
Consider `CC(O)(C[C@]1(CO)CCC2=Cc3c(cnn3-c3ccc(F)cc3)C[C@@]21C)c1cccnc1` (single isomer, unassigned) [Example 25a], for which the Ki (commonly the dissociation constant of the complex between target and ligand, obtained from inhibition or displacement) turned out to be 26.3 nM.

For the compound `CC(O)(C[C@]1(CO)CCC2=Cc3c(cnn3-c3ccc(F)cc3)C[C@@]21C)c1cccnc1` (single isomer, unassigned) [Example 25b], the Ki turned out to be 21.9 nM.

Regarding `COc1cccnc1C(O)C[C@]1(CO)CCC2=Cc3c(cnn3-c3cccc(F)c3)C[C@@]21C` (single isomer, unassigned) [Example 26a], the Ki is 8.6 nM.

Consider `COc1cccnc1C(O)C[C@]1(CO)CCC2=Cc3c(cnn3-c3cccc(F)c3)C[C@@]21C` (single isomer, unassigned) [Example 26b], for which the Ki was 35.5 nM.

Consider `C[C@]12Cc3cnn(-c4cccc(F)c4)c3C=C1CC[C@@]2(CO)CC(O)c1cccnc1` (single isomer, unassigned) [Example 27a], for which the Ki came out at 13.9 nM.

In the case of `C[C@]12Cc3cnn(-c4cccc(F)c4)c3C=C1CC[C@@]2(CO)CC(O)c1cccnc1` (single isomer, unassigned) [Example 27b], the Ki came to 13.4 nM.

Consider `C[C@]12Cc3cnn(-c4ccc(F)cc4)c3C=C1CC[C@@]2(CO)CC(O)C(F)(F)F` (single isomer, unassigned) [Example 28a], for which the Ki was 8.3 nM.

In the case of `C[C@]12Cc3cnn(-c4ccc(F)cc4)c3C=C1CC[C@@]2(CO)CC(O)C(F)(F)F` (single isomer, unassigned) [Example 28b], the Ki was found to be 5.4 nM.

On to `C[C@]12Cc3cnn(-c4ccccc4)c3C=C1CC[C@@]2(CO)CC(O)c1cccnc1` (single isomer, unassigned) [Example 29a], for which the Ki stood at 11.8 nM.

In the case of `C[C@]12Cc3cnn(-c4ccccc4)c3C=C1CC[C@@]2(CO)CC(O)c1cccnc1` (single isomer, unassigned) [Example 29b], the Ki stood at 8.2 nM.

For `C[C@]12Cc3cnn(-c4ccc(F)cc4)c3C=C1CC[C@@]2(CO)CC(O)c1ccccc1F` (stereo partly drawn) [Example 4, 1-(2-fluorophenyl)-2-[(4αS,5R)-1-(4-fluorophenyl)-5-(hydroxymethyl)-4α-methyl-1,4,4α,5,6,7-hexahydrocyclopenta[f]indazol-5-yl]ethanol], the Ki amounted to 0.9 nM.

In the case of `C[C@]12Cc3cnn(-c4ccc(F)cc4)c3C=C1CC[C@@]2(CO)CC(O)c1cccc(Cl)c1` (stereo partly drawn) [Example 8, 1-(3-chlorophenyl)-2-[(4αS,5R)-1-(4-fluorophenyl)-5-(hydroxymethyl)-4α-methyl-1,4,4α,5,6,7-hexahydrocyclopenta[f]indazol-5-yl]ethanol], the Ki was found to be 1.2 nM.

As for `C[C@]12Cc3cnn(-c4ccc(F)cc4)c3C=C1CC[C@@]2(CO)CC(O)c1cc(F)cc(F)c1` (stereo partly drawn) [Example 9, 1-(3,5-difluorophenyl)-2-[(4αS,5R)-1-(4-fluorophenyl)-5-(hydroxymethyl)-4α-methyl-1,4,4α,5,6,7-hexahydrocyclopenta[f]indazol-5-yl]ethanol], the Ki worked out at 2.1 nM.

As to `C[C@]12Cc3cnn(-c4ccc(F)cc4)c3C=C1CC[C@@]2(CO)CC1OC(=O)c2ccccc21` (stereo partly drawn) [Example 11, 3-{[(4αS,5R)-1-(4-fluorophenyl)-5-(hydroxymethyl)-4α-methyl-1,4,4α,5,6,7,7a,8-octahydrocyclopenta[f]indazol-5-yl]methyl}-2-benzofuran-1(3H)-one], the inhibition constant (Ki) is 19.2 nM.

Consider `Cc1ccc(C(O)C[C@]2(CO)CCC3=Cc4c(cnn4-c4ccc(F)cc4)C[C@@]32C)nc1` (stereo partly drawn) [Example 16, 2-[(4αS,5R)-1-(4-fluorophenyl)-5-(hydroxymethyl)-4α-methyl-1,4,4α,5,6,7-hexahydrocyclopenta[f]indazol-5-yl]-1-(5-methylpyridin-2-yl)ethanol], for which the Ki was 3.7 nM.
